Data reported in US20100247551A1, “Use of Lipocalin 2 in the Regulation of Insulin Sensitivity” (priority 2006, published 2010).
One block for each molecule: values may come before it.

Assays:
[1] = system: Lcn2 expression in 3T3-L1 adipocytes; test: Lcn2 mRNA expression in mature 3T3-L1 adipocytes (Q-PCR); type: cell-based, mouse; details: Dex 1 μM or TNF 4 ng/μL (FIG. 1)
Method: Mature 3T3-L1 adipocytes were treated with Dex (1 μM) or TNF (4 ng/μL) in the presence or absence of rosiglitazone (Rosi; 1 μM), and Lcn2 mRNA levels were measured by Q-PCR. Data presented as mean±SD, *p<0.05, ***p=0.005 relative to no Rosi.

H4IIe hepatocytes = test: Insulin resistance in H4IIe hepatocytes (glucose production, glucose-6-phosphatase mRNA expression); type: cell-based; details: liganded Lcn2 10 nM, with or without insulin 100 nM (FIG. 6)
Method: FIG. 6A: Left, Glucose production induced by liganded Lcn2 (10 nM) or Dex (250 nM) in the presence or absence of insulin (100 nM). Right, effect of liganded Lcn2 (10 nM) or Dex (250 nM) on glucose-6-phosphatase mRNA expression in the presence or absence of insulin (100 nM). FIG. 6B: Dose response of liganded Lcn2 on glucose-6-phosphatase expression. FIG. 6C: Effect of apo-Lcn2 on glucose-6-phosphatase expression. For all panels, mean±SD, p<0.05, **p<0.01, n=3.

Molecule: TNF-α
Lcn2 expression [1]: dramatically induced

insulin resistance (glucose production, glucose-6-phosphatase expression) (H4IIe hepatocytes): induces insulin resistance
B1: recombinant Lcn2: exogenous recombinant lipocalin 2 protein (protein, UniProt P80188 21-198, looked up)
Neutrophil …: QDSTSDLIPAPPLSKVPLQQNFQDNQFQGKWYVVGLAGNAILREDKDPQKMYATIYELKEDKSYNVTSVLFRKKKCDYWIRTFVPGCQPGEFTLGNIKSYPGLTSYLVRVVSTNYNQHAMVFFKKVSQNREYFKITLYGRTKELTSELKENFIRFSKSLGLPENHIVFPVPIDQCIDG
